Assays:
[1] = test system: Tyrosine-protein kinase ABL1 (Homo sapiens), P00519 [F317L]; conditions: Compound concentration 1000.0 nM
[2] = target: SRSF protein kinase 2 (Homo sapiens) (UniProt P78362); conditions: Compound concentration 1000.0 nM
[3] = target: Tyrosine-protein kinase JAK2 (Homo sapiens) (UniProt O60674); conditions: Compound concentration 1000.0 nM
[4] = target: Rho-associated protein kinase 1 (Homo sapiens) (UniProt Q13464); conditions: Compound concentration 1000.0 nM
[5] = target: Activin receptor type-1-like (Homo sapiens) (UniProt P37023); conditions: Compound concentration 1000.0 nM
Sequence of Activin receptor type-1-like (Homo sapiens) (P37023 whole entry): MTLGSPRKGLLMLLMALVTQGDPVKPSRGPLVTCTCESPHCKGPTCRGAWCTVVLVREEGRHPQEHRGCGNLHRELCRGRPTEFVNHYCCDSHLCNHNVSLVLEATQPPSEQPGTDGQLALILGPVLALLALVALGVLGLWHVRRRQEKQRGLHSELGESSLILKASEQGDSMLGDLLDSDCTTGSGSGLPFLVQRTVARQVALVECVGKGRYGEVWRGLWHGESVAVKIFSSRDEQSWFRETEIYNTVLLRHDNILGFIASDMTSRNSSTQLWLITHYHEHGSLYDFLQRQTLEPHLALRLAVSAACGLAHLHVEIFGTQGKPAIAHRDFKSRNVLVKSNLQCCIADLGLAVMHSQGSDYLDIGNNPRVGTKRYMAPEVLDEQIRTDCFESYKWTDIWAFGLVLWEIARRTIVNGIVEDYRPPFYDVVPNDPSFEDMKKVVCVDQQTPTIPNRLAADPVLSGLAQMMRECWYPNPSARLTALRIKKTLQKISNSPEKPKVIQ

[6] = target: Epidermal growth factor receptor (Homo sapiens) (UniProt P00533); conditions: Compound concentration 1000.0 nM
[7] = target: SRSF protein kinase 1 (Homo sapiens) (UniProt Q96SB4); conditions: Compound concentration 1000.0 nM
[8] = target: Tyrosine-protein kinase BTK (Homo sapiens) (UniProt Q06187); conditions: Compound concentration 1000.0 nM
[9] = target: Megakaryocyte-associated tyrosine-protein kinase (Homo sapiens) (UniProt P42679); conditions: Compound concentration 1000.0 nM
[10] = target: Beta-1 adrenergic receptor (Homo sapiens) (UniProt P08588); conditions: Compound concentration 10.0 uM
[11] = target: Inhibitor of nuclear factor kappa-B kinase subunit beta (Homo sapiens) (UniProt O14920); conditions: Compound concentration 1000.0 nM
[12] = target: Phosphatidylinositol 3-kinase catalytic subunit type 3 (Homo sapiens) (UniProt Q8NEB9); conditions: Compound concentration 1000.0 nM
[13] = target: Mitogen-activated protein kinase kinase kinase 5 (Homo sapiens) (UniProt Q99683); conditions: Compound concentration 1000.0 nM
[14] = target: Cyclin-dependent kinase 13 (Homo sapiens) (UniProt Q14004); conditions: Compound concentration 1000.0 nM
[15] = target: Cyclin-dependent kinase-like 1 (Homo sapiens) (UniProt Q00532); conditions: Compound concentration 1000.0 nM
Sequence of Cyclin-dependent kinase-like 1 (Homo sapiens) (Q00532 whole entry): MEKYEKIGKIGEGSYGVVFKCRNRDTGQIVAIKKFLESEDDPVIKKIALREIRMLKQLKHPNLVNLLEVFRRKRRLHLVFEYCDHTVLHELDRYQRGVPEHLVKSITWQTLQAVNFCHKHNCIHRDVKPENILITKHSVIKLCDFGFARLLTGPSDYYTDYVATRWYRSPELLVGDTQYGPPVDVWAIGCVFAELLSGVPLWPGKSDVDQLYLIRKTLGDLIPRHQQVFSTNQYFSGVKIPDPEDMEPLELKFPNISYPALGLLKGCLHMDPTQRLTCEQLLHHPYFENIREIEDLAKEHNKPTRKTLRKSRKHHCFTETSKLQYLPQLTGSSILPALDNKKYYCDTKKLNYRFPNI

[16] = target: BDNF/NT-3 growth factors receptor (Homo sapiens) (UniProt Q16620); conditions: Compound concentration 1000.0 nM
[17] = target: STE20/SPS1-related proline-alanine-rich protein kinase (Homo sapiens) (UniProt Q9UEW8); conditions: Compound concentration 1000.0 nM
[18] = target: Cyclin-dependent kinase 4 (Homo sapiens) (UniProt P11802); conditions: Compound concentration 1000.0 nM
Sequence of Cyclin-dependent kinase 4 (Homo sapiens) (P11802 whole entry): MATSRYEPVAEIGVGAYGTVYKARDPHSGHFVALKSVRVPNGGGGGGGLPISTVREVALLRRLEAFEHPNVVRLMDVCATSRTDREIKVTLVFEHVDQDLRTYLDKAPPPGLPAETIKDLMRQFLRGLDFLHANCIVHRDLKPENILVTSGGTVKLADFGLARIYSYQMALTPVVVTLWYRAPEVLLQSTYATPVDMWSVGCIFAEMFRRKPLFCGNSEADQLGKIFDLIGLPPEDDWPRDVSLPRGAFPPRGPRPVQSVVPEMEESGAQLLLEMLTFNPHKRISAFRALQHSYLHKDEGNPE

[19] = target: Maternal embryonic leucine zipper kinase (Homo sapiens) (UniProt Q14680); conditions: Compound concentration 1000.0 nM
[20] = target: Mitogen-activated protein kinase 15 (Homo sapiens) (UniProt Q8TD08); conditions: Compound concentration 1000.0 nM
[21] = target: Ephrin type-A receptor 3 (Homo sapiens) (UniProt P29320); conditions: Compound concentration 1000.0 nM
[22] = target: 1-phosphatidylinositol 3-phosphate 5-kinase (Homo sapiens) (UniProt Q9Y2I7); conditions: Compound concentration 1000.0 nM
[23] = target: Calcium/calmodulin-dependent protein kinase type II subunit alpha (Homo sapiens) (UniProt Q9UQM7); conditions: Compound concentration 1000.0 nM
[24] = target: Tyrosine-protein kinase Lck (Homo sapiens) (UniProt P06239); conditions: Compound concentration 1000.0 nM
[25] = target: Tyrosine-protein kinase HCK (Homo sapiens) (UniProt P08631); conditions: Compound concentration 1000.0 nM
[26] = target: Serine/threonine-protein kinase pim-1 (Homo sapiens) (UniProt P11309); conditions: Compound concentration 1000.0 nM
Sequence of Serine/threonine-protein kinase pim-1 (Homo sapiens) (P11309 whole entry, looked up): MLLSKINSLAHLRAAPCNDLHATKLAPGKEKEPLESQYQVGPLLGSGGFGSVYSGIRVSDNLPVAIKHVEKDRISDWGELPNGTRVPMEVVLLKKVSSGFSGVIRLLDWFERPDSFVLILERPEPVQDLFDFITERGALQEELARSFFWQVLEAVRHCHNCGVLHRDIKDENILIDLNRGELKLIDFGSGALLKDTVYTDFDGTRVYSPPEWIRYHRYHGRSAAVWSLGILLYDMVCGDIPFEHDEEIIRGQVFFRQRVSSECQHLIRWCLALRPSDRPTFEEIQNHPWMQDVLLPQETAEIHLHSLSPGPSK

[27] = target: Activated CDC42 kinase 1 (Homo sapiens) (UniProt Q07912); conditions: Compound concentration 1000.0 nM
[28] = target: Tyrosine-protein kinase Lyn (Homo sapiens) (UniProt P07948); conditions: Compound concentration 1000.0 nM
[29] = target: Protein-tyrosine kinase 6 (Homo sapiens) (UniProt Q13882); conditions: Compound concentration 1000.0 nM
[30] = target: Serine/threonine-protein kinase ULK3 (Homo sapiens) (UniProt Q6PHR2); conditions: Compound concentration 1000.0 nM
[31] = target: Mitogen-activated protein kinase kinase kinase 6 (Homo sapiens) (UniProt O95382); conditions: Compound concentration 1000.0 nM
[32] = target: Calcium/calmodulin-dependent protein kinase type 1 (Homo sapiens) (UniProt Q14012); conditions: Compound concentration 1000.0 nM
Sequence of Calcium/calmodulin-dependent protein kinase type 1 (Homo sapiens) (Q14012 whole entry, looked up): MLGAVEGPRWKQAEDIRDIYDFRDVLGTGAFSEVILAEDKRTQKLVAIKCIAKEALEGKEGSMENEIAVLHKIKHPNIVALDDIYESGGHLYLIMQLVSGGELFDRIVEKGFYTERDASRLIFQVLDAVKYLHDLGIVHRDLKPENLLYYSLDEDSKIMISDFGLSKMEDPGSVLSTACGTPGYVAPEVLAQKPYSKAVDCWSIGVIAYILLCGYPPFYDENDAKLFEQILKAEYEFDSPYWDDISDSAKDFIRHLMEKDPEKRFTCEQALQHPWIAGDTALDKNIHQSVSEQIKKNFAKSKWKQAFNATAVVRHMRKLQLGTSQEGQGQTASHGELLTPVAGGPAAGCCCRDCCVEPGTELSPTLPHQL

[33] = target: Interleukin-1 receptor-associated kinase 1 (Homo sapiens) (UniProt P51617); conditions: Compound concentration 1000.0 nM
[34] = test system: eIF-2-alpha kinase GCN2 (Homo sapiens), Q9P2K8 [S808G]; conditions: Compound concentration 1000.0 nM
[35] = target: Aurora kinase A (Homo sapiens) (UniProt O14965); conditions: Compound concentration 1000.0 nM
Sequence of Aurora kinase A (Homo sapiens) (O14965 whole entry): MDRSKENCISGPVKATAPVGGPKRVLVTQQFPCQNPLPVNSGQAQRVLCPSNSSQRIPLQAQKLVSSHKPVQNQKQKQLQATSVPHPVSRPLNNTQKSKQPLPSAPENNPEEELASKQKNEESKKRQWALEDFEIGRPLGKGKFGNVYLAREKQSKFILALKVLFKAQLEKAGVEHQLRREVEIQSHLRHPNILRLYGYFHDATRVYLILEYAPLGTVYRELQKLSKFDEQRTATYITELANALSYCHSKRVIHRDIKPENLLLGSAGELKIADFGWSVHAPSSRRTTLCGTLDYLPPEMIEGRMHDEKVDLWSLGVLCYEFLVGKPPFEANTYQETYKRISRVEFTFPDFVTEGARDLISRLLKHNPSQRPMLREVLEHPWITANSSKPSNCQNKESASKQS

[36] = target: Dual specificity mitogen-activated protein kinase kinase 2 (Homo sapiens) (UniProt P36507); conditions: Compound concentration 1000.0 nM
[37] = target: Histamine H2 receptor (Homo sapiens) (UniProt P25021); conditions: Compound concentration 10.0 uM
[38] = target: Tyrosine-protein kinase SYK (Homo sapiens) (UniProt P43405); conditions: Compound concentration 1000.0 nM
[39] = target: Phosphatidylinositol 5-phosphate 4-kinase type-2 beta (Homo sapiens) (UniProt P78356); conditions: Compound concentration 1000.0 nM
[40] = target: Cyclin-dependent kinase 9 (Homo sapiens) (UniProt P50750); conditions: Compound concentration 1000.0 nM
Sequence of Cyclin-dependent kinase 9 (Homo sapiens) (P50750 whole entry): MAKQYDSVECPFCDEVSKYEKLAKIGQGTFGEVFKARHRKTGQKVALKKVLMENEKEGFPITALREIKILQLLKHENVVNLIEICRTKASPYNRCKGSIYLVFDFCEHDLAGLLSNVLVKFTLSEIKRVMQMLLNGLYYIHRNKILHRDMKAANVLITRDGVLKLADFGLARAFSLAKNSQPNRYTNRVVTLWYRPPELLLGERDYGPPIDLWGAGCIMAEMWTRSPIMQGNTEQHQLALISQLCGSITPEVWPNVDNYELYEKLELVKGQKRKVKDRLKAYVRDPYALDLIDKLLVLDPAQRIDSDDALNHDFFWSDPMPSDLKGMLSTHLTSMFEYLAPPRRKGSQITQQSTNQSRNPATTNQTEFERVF

[41] = target: Aurora kinase B (Homo sapiens) (UniProt Q96GD4); conditions: Compound concentration 1000.0 nM
[42] = target: 5-hydroxytryptamine receptor 1A (Homo sapiens) (UniProt P08908); conditions: Compound concentration 10.0 uM
Sequence of 5-hydroxytryptamine receptor 1A (Homo sapiens) (P08908 whole entry): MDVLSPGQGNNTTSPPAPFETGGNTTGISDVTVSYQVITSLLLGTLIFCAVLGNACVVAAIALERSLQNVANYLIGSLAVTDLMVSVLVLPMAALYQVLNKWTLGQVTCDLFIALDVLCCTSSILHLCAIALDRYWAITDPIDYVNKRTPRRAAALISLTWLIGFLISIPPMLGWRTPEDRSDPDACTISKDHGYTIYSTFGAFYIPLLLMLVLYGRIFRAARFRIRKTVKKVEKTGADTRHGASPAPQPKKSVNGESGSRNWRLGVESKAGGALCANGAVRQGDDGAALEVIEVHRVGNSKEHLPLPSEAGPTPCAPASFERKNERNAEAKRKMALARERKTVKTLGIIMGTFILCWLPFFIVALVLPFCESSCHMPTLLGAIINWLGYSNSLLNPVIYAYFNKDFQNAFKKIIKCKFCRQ

[43] = target: Protein kinase C iota type (Homo sapiens) (UniProt P41743); conditions: Compound concentration 1000.0 nM
[44] = target: RAC-gamma serine/threonine-protein kinase (Homo sapiens) (UniProt Q9Y243); conditions: Compound concentration 1000.0 nM
[45] = target: Receptor tyrosine-protein kinase erbB-4 (Homo sapiens) (UniProt Q15303); conditions: Compound concentration 1000.0 nM
[46] = target: Bone morphogenetic protein receptor type-2 (Homo sapiens) (UniProt Q13873); conditions: Compound concentration 1000.0 nM

Sequence of SRSF protein kinase 2 (Homo sapiens) (P78362 whole entry, looked up): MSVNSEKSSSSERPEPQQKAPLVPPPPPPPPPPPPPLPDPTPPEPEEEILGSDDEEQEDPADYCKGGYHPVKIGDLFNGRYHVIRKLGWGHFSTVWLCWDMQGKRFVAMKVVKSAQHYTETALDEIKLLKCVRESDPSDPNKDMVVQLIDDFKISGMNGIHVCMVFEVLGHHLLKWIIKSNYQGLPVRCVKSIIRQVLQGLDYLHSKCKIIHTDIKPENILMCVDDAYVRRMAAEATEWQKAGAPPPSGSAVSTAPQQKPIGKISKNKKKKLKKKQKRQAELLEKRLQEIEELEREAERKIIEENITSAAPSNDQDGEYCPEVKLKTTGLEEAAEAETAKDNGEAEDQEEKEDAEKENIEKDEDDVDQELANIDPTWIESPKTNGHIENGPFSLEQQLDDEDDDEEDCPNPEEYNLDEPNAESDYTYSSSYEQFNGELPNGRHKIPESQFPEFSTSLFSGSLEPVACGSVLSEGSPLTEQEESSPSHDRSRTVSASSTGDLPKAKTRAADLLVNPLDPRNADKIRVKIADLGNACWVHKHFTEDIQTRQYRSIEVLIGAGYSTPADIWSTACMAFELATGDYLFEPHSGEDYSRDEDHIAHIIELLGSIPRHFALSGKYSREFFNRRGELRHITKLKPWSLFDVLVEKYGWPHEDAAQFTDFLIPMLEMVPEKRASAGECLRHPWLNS
Sequence of Tyrosine-protein kinase ABL1 (Homo sapiens), P00519 [F317L] (P00519 whole entry F317L): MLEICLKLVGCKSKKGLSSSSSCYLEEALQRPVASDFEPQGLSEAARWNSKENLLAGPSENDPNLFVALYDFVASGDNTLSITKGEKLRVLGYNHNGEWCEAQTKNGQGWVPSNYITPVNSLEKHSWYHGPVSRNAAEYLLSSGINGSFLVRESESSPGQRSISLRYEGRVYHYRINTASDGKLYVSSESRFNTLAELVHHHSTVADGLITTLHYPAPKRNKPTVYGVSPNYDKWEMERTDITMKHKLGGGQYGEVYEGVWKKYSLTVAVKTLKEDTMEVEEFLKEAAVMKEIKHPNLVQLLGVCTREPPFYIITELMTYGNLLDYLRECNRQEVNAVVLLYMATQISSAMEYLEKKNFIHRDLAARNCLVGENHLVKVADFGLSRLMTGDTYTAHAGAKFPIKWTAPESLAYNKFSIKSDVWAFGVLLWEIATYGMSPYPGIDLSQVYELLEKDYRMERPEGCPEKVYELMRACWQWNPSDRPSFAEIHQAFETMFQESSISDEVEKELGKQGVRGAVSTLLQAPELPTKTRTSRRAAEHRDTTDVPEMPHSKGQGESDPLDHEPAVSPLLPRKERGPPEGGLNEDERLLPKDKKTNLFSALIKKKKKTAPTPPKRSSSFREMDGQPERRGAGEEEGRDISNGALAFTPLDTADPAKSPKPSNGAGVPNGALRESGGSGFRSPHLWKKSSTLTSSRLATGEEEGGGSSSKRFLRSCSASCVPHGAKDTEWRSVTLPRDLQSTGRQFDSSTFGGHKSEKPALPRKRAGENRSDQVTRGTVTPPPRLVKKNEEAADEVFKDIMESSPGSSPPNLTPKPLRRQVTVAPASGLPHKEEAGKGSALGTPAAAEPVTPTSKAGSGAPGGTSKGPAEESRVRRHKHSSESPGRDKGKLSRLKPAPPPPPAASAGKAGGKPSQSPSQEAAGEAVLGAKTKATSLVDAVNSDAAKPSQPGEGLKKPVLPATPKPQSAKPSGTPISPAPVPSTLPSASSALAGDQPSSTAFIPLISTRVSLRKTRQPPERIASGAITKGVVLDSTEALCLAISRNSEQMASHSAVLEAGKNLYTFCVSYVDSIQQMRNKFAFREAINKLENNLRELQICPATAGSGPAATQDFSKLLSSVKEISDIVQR

COc1cccc(CNC(=O)c2nc3scc(COCc4ccc(C(=O)O)cc4)c3c(=O)[nH]2)c1 [T-26c]
inactive: residual activity [1] 78.7% | residual activity [2] 100% | residual activity [3] 100% | residual activity [4] 100% | residual activity [5] 100% | residual activity [6] 69.3% | residual activity [7] 100% | residual activity [8] 63% | residual activity [9] 97.8% | inhibition [10] 29.9% | residual activity [11] 73.2% | residual activity [12] 58.6% | residual activity [13] 97.8% | residual activity [14] 67.6% | residual activity [15] 100% | residual activity [16] 67.1% | residual activity [17] 100% | residual activity [18] 61.7% | residual activity [19] 100% | residual activity [20] 82.4% | residual activity [21] 91.3% | residual activity [22] 100% | residual activity [23] 92.5% | residual activity [24] 100% | residual activity [25] 79.7% | residual activity [26] 100% | residual activity [27] 89.6% | residual activity [28] 93.7% | residual activity [29] 82.5% | residual activity [30] 76% | residual activity [31] 74.5% | residual activity [32] 88.2% | residual activity [33] 75.6% | residual activity [34] 100% | residual activity [35] 80.9% | residual activity [36] 75.1% | inhibition [37] 28.4% | residual activity [38] 100% | residual activity [39] 100% | residual activity [40] 78.6% | residual activity [41] 71.3% | inhibition [42] 7.7% | residual activity [43] 100% | residual activity [44] 84.8% | residual activity [45] 86.1% | residual activity [46] 71.8%

— ChEMBL document CHEMBL4507300 (2021)
